Data published in patent US20230218606A1, “USE OF 4-AMINOQUINOLINE COMPOUND IN TREATMENT OF CORONAVIRUS INFECTION” (priority 2020, published 2023).
Read-outs that look alike come from different tables or passages of the source.

Experiments:
SARS-CoV-2 [1] = test: microbe, parasite or virus in culture; assay type: cell-based
SARS-CoV-2 [2] = test: Example 3: co-localization of SARS-CoV-2 virus particles with early endosomes or endolysosomes (immunofluorescence); assay type: cell-based; conditions: 50 µM drug, veroE6 cells, MOI of 10, 90 min at 37° C.
Procedure: (at MOI of 10); • 3) the veroE6 cells were washed twice with PBS (purchased from Gibco, Catalog No. C10010500BT) to remove unbound virus particles, freshly pre-warmed MEM culture medium containing 2% FBS was added, and then the veroE6 cells were incubated at 37° C. for 90 min; • 4) the cells were fixed, and the immunofluorescence staining of cells was performed by using anti-virus NP protein antibody (red) (preserved by Wuhan Institute of Virology, Chinese Academy of Sciences) and anti-early endosomal protein EEA antibody (green) (purchased from Cell Signaling Technology, Catalog No. 48453) or anti-lysosomal protein LAMP antibody (green) (purchased from Cell Signaling Technology company, Catalog No. 3243); the nuclei were stained with Hoechst (blue) (purchased from Invitrogen company, Catalog No. H21492); • 5) quantitative analysis of co-localization of virus particles and endosomes of the cells in each group was performed, and co-localization rate was calculated.

Vero-E6 cells = conditions: Example 1, all test concentrations
Procedure: (§1) The cytotoxicity test of drugs was carried out by using CCK-8 kit (Beyotime). […] The original medium in the 96-well plate was discarded, 100 µL of the drug-containing MEM medium was taken and added to the cells, and three replicate wells were set for each concentration. A vehicle control (adding DMSO and medium to cells in wells, without adding drug) and a blank control (adding DMSO and medium to the wells, without cells) were set up. After the drug was added, the cells were incubated at 37° C. for 48 hours. • ③ 20 µL of CCK-8 solution (Beyotime) was added to the well to be tested, mixed gently without generating bubbles, and incubated subsequently at 37° C. for 2 hours. OD450 was read on a microplate reader (purchased from Molecular Devices, model: SpectraMax M5), and the reading was substituted into the following formula to calculate cell viability: • [formula] • Wherein, A was the reading of the microplate reader.

in vitro = conditions: African green monkey
Procedure: as §1

ZIKV = conditions: pregnant mice, 40 mg/kg/day intraperitoneally from first day after ZIKV infection, compared to PBS; cited from earlier work
DENV-2 = conditions: cited from earlier work
[3] = test system: Zika virus protease NS2B-NS3; conditions: read-out: inhibitory constant Ki; cited from earlier work

Structure (SMILES) | inhibition of replication of SARS-CoV-2 virus genome in the infected supernatant (SARS-CoV-2 [1]; Example 1, at 50 µM, 16.67 µM and 5.56 µM) | EC50 (SARS-CoV-2 [1]; Severe acute respiratory syndrome coronavirus 2, Vero C1008, 48 h, read-out: half-maximal effective concentration (EC50)) | co-localization rate of virus particles and early endosomes (EES) (SARS-CoV-2 [2]) | co-localization rate of virus particles and endolysosomes (ELs) (SARS-CoV-2 [2]) | toxic effect on cells (cell viability) (Vero-E6 cells) | CC50 at 48 h (in vitro) | level of ZIKV infection in placenta (ZIKV) | reduction of DENV-2 virus titer (DENV-2; A549 cell line, 50 to 80 µM) | IC50 (DENV-2; A549 cells, read-out: IC50 for DENV-2 infected cells) | IC50 (DENV-2; Hepa1-6 cells, read-out: IC50 for DENV-2 infected cells) | IC50 (DENV-2; J774A.1 macrophages, read-out: IC50, inhibition of DENV-2 infection of macrophages) | IC50 (DENV-2; WS-1 cells, read-out: IC50 for DENV-2 infected cells) | Ki [3]
CCN(CC)CCCC(C)Nc1ccnc2cc(Cl)ccc12 (stereo not drawn) [chloroquine phosphate] | could effectively inhibit the replication | 1.13 µM | 35.3% | 2.4% | no toxic effect on cells at all concentrations | – | – | – | – | – | – | – | –
CCN(CCO)CCCC(C)Nc1ccnc2cc(Cl)ccc12 (stereo not drawn) [hydroxychloroquine, 2-[[4-[(7-chloroquinolin-4-yl)amino]pentyl]ethylamino]-ethanol] | – | – | 29.2% | 0.03% | – | > 250 µM | lower level of ZIKV infection | 100 times | 10.1 ± 1.6 µM | 12.9 ± 4.2 µM | 9.7 ± 1.3 µM | 12.9 ± 1.9 µM | 92.3 ± 11.9 µM
